From ChEMBL document CHEMBL4616600, “Synthesis and cytotoxic evaluation of halogenated α-exo-methylene-lactones” (Bioorg Med Chem, 2020)

Assays:
[1] = Antiproliferative activity against human H1975-1 harboring EGFR L858R/T790M mutant measured after 72 hrs by sulforhodamine B assay; format: functional
A-431 = assay: Antiproliferative activity against human A431 wild type cells measured after 72 hrs by Sulforhodamine B assay; format: functional, cell-based; conditions: A-431, 72 h
[2] = biological target: Epidermal growth factor receptor (Homo sapiens, UniProt P00533); assay: Inhibition of wild type EGFR (unknown origin)
Chain of Epidermal growth factor receptor (Homo sapiens, UniProt P00533) (P00533 whole entry): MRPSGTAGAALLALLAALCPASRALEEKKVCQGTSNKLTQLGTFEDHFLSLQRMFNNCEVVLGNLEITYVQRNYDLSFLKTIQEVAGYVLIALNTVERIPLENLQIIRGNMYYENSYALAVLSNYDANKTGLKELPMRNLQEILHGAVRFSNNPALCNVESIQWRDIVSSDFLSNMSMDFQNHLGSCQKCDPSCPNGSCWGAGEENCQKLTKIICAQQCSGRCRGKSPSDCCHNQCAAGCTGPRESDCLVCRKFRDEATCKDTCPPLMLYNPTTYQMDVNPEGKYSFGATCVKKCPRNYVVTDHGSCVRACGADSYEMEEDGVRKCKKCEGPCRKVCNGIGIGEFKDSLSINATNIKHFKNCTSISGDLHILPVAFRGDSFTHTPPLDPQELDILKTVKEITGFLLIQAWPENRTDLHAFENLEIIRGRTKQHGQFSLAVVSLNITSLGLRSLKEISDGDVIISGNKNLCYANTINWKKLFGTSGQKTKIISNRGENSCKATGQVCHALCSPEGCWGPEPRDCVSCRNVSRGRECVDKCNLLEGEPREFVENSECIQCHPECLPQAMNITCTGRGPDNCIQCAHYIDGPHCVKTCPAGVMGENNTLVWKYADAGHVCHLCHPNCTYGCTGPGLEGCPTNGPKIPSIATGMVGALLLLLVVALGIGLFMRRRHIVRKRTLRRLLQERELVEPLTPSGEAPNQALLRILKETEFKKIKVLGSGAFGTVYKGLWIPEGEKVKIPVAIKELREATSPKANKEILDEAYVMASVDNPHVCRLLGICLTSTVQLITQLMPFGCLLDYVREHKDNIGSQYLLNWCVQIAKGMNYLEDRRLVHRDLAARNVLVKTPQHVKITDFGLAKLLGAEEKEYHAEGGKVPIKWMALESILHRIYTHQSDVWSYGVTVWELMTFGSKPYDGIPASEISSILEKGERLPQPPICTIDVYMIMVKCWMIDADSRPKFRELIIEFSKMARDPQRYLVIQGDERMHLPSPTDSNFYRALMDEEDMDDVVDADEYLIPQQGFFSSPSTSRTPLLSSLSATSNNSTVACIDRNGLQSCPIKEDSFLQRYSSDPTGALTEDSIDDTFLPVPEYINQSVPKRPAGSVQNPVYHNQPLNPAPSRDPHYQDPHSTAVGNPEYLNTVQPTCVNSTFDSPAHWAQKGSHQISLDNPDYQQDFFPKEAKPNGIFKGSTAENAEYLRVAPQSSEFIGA

A549 = assay: Antiproliferative activity against human A549 cells measured after 72 hrs by sulforhodamine B assay; format: functional, cell-based; conditions: A549, 72 h
HCC827 = assay: Antiproliferative activity against human HCC827 cells measured after 72 hrs by sulforhodamine B assay; format: functional, cell-based; conditions: HCC827, 72 h
[3] = biological target: Epidermal growth factor receptor (Homo sapiens, UniProt P00533, L858R/T790M); assay: Inhibition of EGFR L858R/T790M (unknown origin)
Chain of Epidermal growth factor receptor (Homo sapiens, UniProt P00533, L858R/T790M) (P00533 25-1210 T790M/L858R limits assumed): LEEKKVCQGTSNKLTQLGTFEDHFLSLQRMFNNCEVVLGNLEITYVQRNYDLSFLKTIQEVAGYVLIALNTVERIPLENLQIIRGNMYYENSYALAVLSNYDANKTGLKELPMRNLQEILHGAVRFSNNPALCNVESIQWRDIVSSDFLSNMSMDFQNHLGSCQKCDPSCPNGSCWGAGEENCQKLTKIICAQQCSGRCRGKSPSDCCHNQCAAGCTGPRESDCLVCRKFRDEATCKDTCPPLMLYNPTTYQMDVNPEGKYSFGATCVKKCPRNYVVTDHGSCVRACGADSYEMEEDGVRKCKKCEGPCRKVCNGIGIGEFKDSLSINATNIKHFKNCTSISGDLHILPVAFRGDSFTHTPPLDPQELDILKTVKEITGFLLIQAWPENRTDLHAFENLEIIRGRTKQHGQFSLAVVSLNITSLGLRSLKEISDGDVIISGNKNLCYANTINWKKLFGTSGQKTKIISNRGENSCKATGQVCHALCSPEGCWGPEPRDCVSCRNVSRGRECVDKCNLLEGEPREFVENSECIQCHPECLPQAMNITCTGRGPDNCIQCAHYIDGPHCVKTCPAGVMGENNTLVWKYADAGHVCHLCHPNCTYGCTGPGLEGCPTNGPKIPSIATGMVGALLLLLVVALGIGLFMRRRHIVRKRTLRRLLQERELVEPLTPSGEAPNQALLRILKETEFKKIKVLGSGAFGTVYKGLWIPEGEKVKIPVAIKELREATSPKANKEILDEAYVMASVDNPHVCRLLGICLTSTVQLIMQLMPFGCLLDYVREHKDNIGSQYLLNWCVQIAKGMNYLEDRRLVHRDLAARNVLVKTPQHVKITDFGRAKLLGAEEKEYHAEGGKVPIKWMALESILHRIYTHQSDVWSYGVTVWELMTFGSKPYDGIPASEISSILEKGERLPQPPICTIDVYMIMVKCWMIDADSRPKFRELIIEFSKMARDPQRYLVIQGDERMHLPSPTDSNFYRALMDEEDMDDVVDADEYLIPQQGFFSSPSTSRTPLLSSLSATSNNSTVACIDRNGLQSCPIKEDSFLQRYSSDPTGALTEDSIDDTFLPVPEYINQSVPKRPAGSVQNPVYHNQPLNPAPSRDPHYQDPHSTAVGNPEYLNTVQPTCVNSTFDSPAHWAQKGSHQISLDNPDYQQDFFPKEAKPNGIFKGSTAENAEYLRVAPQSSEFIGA

L02 = assay: Cytotoxicity against human HL7702 cells measured after 72 hrs by sulforhodamine B assay; format: cell-based; conditions: L02, 72 h

| Structure (SMILES) | IC50 (A-431) | IC50 [2] | IC50 (A549) | IC50 (HCC827) | IC50 [3] | IC50 [1] | IC50 (L02) |
| --- | --- | --- | --- | --- | --- | --- | --- |
| C=C1C[C@](CCl)(c2ccccc2)OC1=O | 30.6 µM | – | – | – | – | 9.77 µM | – |
| C=C1C[C@]2(Cc3ccccc3[C@H]2Br)OC1=O | 2.09 µM | – | – | – | – | 4.39 µM | – |
| C=C1CC[C@@](CBr)(c2ccccc2)OC1=O | 2.2 µM | – | – | – | – | 1.62 µM | – |
| C=C1C[C@](CBr)(c2ccccc2)OC1=O | 1.33 µM | – | – | – | – | 0.97 µM | – |
| C=C1CC(CBr)(c2ccccc2C)OC1=O (racemic) | 5.5 µM | – | – | – | – | 3.5 µM | – |
| C=C1C[C@]2(CCCC[C@H]2Br)OC1=O (racemic) | 21.2 µM | – | – | – | – | 4.55 µM | – |
| C=C1CC(CO)(c2ccccc2)OC1=O (racemic) | 4.06 µM | – | – | – | – | 2.26 µM | – |
| C=C1CC(C[Se]c2ccccc2)(c2ccccc2)OC1=O (racemic) | 1.27 µM | – | – | – | – | 1.3 µM | – |
| C=C1CC(CBr)(c2ccccc2OC)OC1=O (racemic) | 2.4 µM | – | – | – | – | 1.1 µM | – |
| C=C1CC(c2ccccc2)(C(C)Br)OC1=O (racemic) | 5.24 µM | – | – | – | – | 1.66 µM | – |
| C=C1CC2(CCCc3ccccc3C2Br)OC1=O (racemic) | 1.27 µM | – | – | – | – | 1.08 µM | – |
| C=C1CC(CF)(c2ccccc2)OC1=O (racemic) | 25.1 µM | – | – | – | – | 13.3 µM | – |
| C=C1CC(CBr)(c2ccc(F)cc2)OC1=O (racemic) | 0.8 µM | 64 µM | 1.68 µM | 2.3 µM | 30 µM | 0.6 µM | 2.4 µM |
| C=C1CC(CBr)(c2ccc(C(F)(F)F)cc2)OC1=O (racemic) | 1.01 µM | – | – | – | – | 1.94 µM | – |
| C=C1CC(CI)(c2ccccc2)OC1=O (racemic) | 2.72 µM | 47 µM | 1.98 µM | 2.2 µM | 26 µM | 0.65 µM | 2.2 µM |
| C=C1CC(c2ccccc2)(C(Br)c2ccccc2)OC1=O (racemic) | 4.19 µM | 29 µM | 1.37 µM | 1 µM | 14 µM | 0.25 µM | 0.96 µM |
| C=C1CC(C)(CBr)OC1=O (racemic) | 124 µM | – | – | – | – | 32 µM | – |
| C=C1CN(S(=O)(=O)c2ccc([N+](=O)[O-])cc2)CC(CBr)(c2ccccc2)OC1=O (racemic) | 21.2 µM | – | – | – | – | 24.2 µM | – |
| C=C1CC(CBr)(c2cccc(C)c2)OC1=O (racemic) | 4.5 µM | – | – | – | – | 1.2 µM | – |
| C=C1CC(C(Br)c2ccccc2)OC1=O (racemic) | 20.3 µM | – | – | – | – | 6.2 µM | – |
| C=CC(=O)Nc1cc(Nc2nccc(-c3cn(C)c4ccccc34)n2)c(OC)cc1N(C)CCN(C)C [OSIMERTINIB] | […] | – | 0.14 µM | 0.2 µM | – | 0.02 µM | 0.3 µM |
| CC(=O)O[C@H]1C(=O)[C@@]2(C)[C@H]([C@H](OC(=O)c3ccccc3)[C@]3(O)C[C@H](OC(=O)[C@H](O)[C@@H](NC(=O)c4ccccc4)c4ccccc4)C(C)=C1C3(C)C)[C@]1(OC(C)=O)CO[C@@H]1C[C@@H]2O [PACLITAXEL] | 0.002 µM | – | – | – | – | 0.003 µM | – |

More lines, main results first:

| IC50 (A-431) | IC50 [2] | IC50 (A549) | IC50 (HCC827) | IC50 [3] | Structure (SMILES) | IC50 [1] | IC50 (L02) |
| --- | --- | --- | --- | --- | --- | --- | --- |
| 2.57 µM | – | – | – | – | C=C1C(=O)O[C@@H]2C3O[C@]3(C)CC/C=C(\C)CC[C@@H]12 (stereo partly drawn) | 1.43 µM | – |
| 43 µM | – | – | – | – | C=C1C[C@@](CCl)(c2ccccc2)OC1=O | 21.4 µM | – |
| 3.3 µM | – | – | – | – | C=C1C[C@]2(CCCc3ccccc3[C@H]2Br)OC1=O | 1.2 µM | – |
| 10.9 µM | – | – | – | – | C=C1CC[C@](CBr)(c2ccccc2)OC1=O | 1.33 µM | – |
| 4.1 µM | – | – | – | – | C=C1C[C@]2(CCc3ccccc3[C@H]2Br)OC1=O | 1.22 µM | – |
| 2.5 µM | – | – | – | – | C=C1C[C@@]2(CCCc3ccccc3[C@@H]2Br)OC1=O | 1 µM | – |
| 2.2 µM | – | – | – | – | C=C1CC(CBr)(c2ccc(C)cc2)OC1=O (racemic) | 1.1 µM | – |
| 1.9 µM | 24 µM | 1.21 µM | 1.1 µM | 15 µM | C=C1CC(CI)(c2ccc(F)cc2)OC1=O (racemic) | 0.6 µM | 1.2 µM |
| 2.77 µM | – | – | – | – | C=C1CC(c2ccccc2)(C(Cl)c2ccccc2)OC1=O (racemic) | 1.26 µM | – |
| 4.2 µM | – | – | – | – | C=C1CC(CBr)(c2ccc(OC)cc2)OC1=O (racemic) | 2.3 µM | – |
| 1.1 µM | – | – | – | – | C=C1CC(CBr)(c2ccc(Cl)cc2)OC1=O (racemic) | 1.54 µM | – |
| 1.7 µM | – | – | – | – | C=C1CC(CBr)(c2ccccc2F)OC1=O (racemic) | 1.3 µM | – |
| 1.48 µM | – | – | – | – | C=C1CC(CBr)(c2ccccc2)OC1=O (racemic) | 0.8 µM | – |
